These results are taken from a melting point compilation (Tetko et al.; mined from patent text by program, amines drawn as free bases though some values may be those of a salt).

Bounds are passed on as bounds.

Take `Cc1coc2cc(N3CCCCC3)c(Cl)cc12`: the melting point (as a rule, the temperature of the solid-liquid transition) is 82 to 84 °C.

`CC(C)N(CC(O)COc1ccccc1C(=O)Nc1cccc2[nH]ccc12)C(C)C` (stereo not given): the melting point amounted to 160 °C. In turn, `COc1ccc(C2=NN(C(C)(C)C)C(=O)[C@H]3CCCC[C@@H]23)cc1OC` (relative stereo) came in with a melting point of 99 to 101 °C.

The compound `C=CCOc1c(Cl)cc(C2=NNC(=O)CC2)cc1Cl` returned a melting point of 137 °C. The same measure for `CC(C)(O)C(=O)Nc1ccc(Sc2ccccc2)cc1F`: 91 to 92.5 °C; for `COC(=O)c1cccc([N+](=O)[O-])c1I`: 64 to 64.5 °C; for `Cc1cccc(C)c1NC(=O)CCS(=O)(=O)c1cc(C(C)(C)C)c(O)c(C(C)(C)C)c1`: 218 to 219 °C. The same measure for `CC(C)NCC(O)COc1ccc2c(c1)C1CCC2c2ccccc21` (stereo not given): 126 to 127 °C; for `O=C(CBr)Nc1c(Cl)cccc1C(=O)O`: 173 to 175 °C; for `O=C1NC(=O)C(c2cc(Cl)ccc2S(=O)(=O)Cl)N1` (stereo not given): 211 to 212 °C. On to `COc1ccc(C#N)cc1/C=C/C(=O)Sc1nc2ccccc2s1`, for which the melting point is 183 to 185 °C. `CCCn1ncnc1COc1nn2c(-c3ccccc3F)nncc2c1C(C)(C)C` returned a melting point of 93 °C. `Cn1nc(Cl)cc(Nc2ccncn2)c1=O` yielded a melting point of 233 to 235 °C. With `COc1ccc(-c2cc3ccc(C(=O)O)cc3o2)cc1C(C)(C)C` the figure was 235 °C; with `CON(C)C(=O)[C@@H](CO)NC(=O)OC(C)(C)C`, 115 to 116 °C. The same measure for `COC1CCC2(C)C(=CCC3C4CCC(=O)C4(C)CCC32)C1` (stereo not given): 133 to 135 °C; for `CCCCN(CCCC)C(=N)c1ccc(-c2ccc([N+](=O)[O-])cc2)o1`: 100 to 101 °C; for `CON=Cc1nc2c(N)nc3cc(Br)ccc3c2s1`: 262 to 264 °C. With `CC(=O)n1c(C)c(-c2ccc(F)cc2)c2cccnc21` the figure was 84 to 87 °C; with `CC(C)(C)OC(=O)N(CCOc1cccc2[nH]cc(Cl)c12)Cc1ccccc1`, 106 to 108 °C; with `CNC(=O)Cn1c(-c2ccccn2)nc2cccnc21`, 228 to 230 °C.

In turn, `CCNC(=O)n1nc(Oc2c(Cl)cc(C(F)(F)F)cc2[N+](=O)[O-])cc1C` gave a melting point of 98 to 99 °C. With `Cc1c(NC(=O)c2ccc(OC[C@@H]3CCCO3)cc2)ccc2[nH]c(CNC3CCCC3)cc12` the figure was 191 to 192 °C; with `COc1ccc([C@@H]2CN(C)CC[C@@H]2NC(=S)c2ccc(C)cc2)cc1OC` (relative stereo), 144 to 146 °C; with `CCOC(=O)C1=C(C)NC(C)=C(C(=O)OCC)C1c1csc2cc([N+](=O)[O-])ccc12`, 191 to 194 °C. With `CS(=O)(=O)c1ccc(C2=C(c3ccc(F)cc3)CC3(CC3)C2)cc1` the figure was 140 to 142 °C. With `C=CCOc1cc(N)c(Cl)cc1C(=O)O` the figure was 136 to 137 °C; with `CCc1nc2c(N)nc3ccccc3c2n1CCCCSC`, 183 to 186 °C. `O=C1NC(N2CCCCCC2)=N/C1=C\c1c[nH]c2ncc(C(F)(F)F)cc12` came in with a melting point of 340 °C. The same measure for `CC(=O)Nc1c(C(=O)c2ccccc2)[nH]c2cc(C)ccc12`: 136 to 138 °C; for `O=C1c2ccc(Nc3ccc(F)cc3F)cc2CCc2c(OC[C@H](O)CO)cccc21`: 125 °C. With `CCOC(=O)C1=C(C)N(C(C)=O)C(c2csc(C)n2)=NC1c1ccc(Cl)cc1` (stereo not given) the figure was 169 to 171 °C; with `CCC(=O)NCC[C@@H]1CCc2cc(Br)c(O)cc21`, 146 to 148 °C; with `CCc1ccc(-n2nc(Cl)cc2-c2ccc(S(C)(=O)=O)cc2)cc1N`, 158 to 160 °C. The same measure for `COc1cc(S(C)(=O)=O)ccc1-c1ccc(C#N)c(=O)[nH]1`: 280 to 282 °C; for `N#Cc1cnc(N)nc1-c1ccccc1`: 147 °C; for `c1ccc(-n2c(-c3cccnc3)nc3ccccc32)cc1`: 110 to 112 °C. In turn, `Cc1cc(C)cc(Sc2c(CN3CCOCC3)c(C)[nH]c(=O)c2I)c1` gave a melting point of 230 °C. With `COc1cc2c(cc1OC)[C@@H](c1ccc([N+](=O)[O-])cc1)NN(C1=NCCS1)[C@@H](C)C2` the figure was 206 to 212 °C; with `COc1cc([C@H]2CS[C@@H](c3cc(OC)c(OC)c([N+](=O)[O-])c3)S2)cc(OC)c1OC` (relative stereo), 133 to 134 °C. The same measure for `O=S(=O)(C1=Cc2ccccc2C1)c1ccc(O)cc1`: 209 to 210 °C; for `CCCc1nn(-c2ccc(C(F)(F)F)cn2)cc1CCCOc1cccc(OC(C)(C)C(=O)O)c1`: 99 to 100 °C. The same measure for `CCCCc1nc2c(N)nc3ccc(OCc4ccccc4)cc3c2n1CCCCNC(=O)N1CCOCC1`: 177 to 179 °C; for `COc1ccc(Oc2c(-c3ccc(S(C)(=O)=O)cc3)cnn(CC(F)(F)F)c2=O)cc1`: 194 to 195 °C.

On to `Sc1nc2ccccc2n1Cc1c(Cl)cccc1Cl`, for which the melting point was 234 to 235 °C. The same measure for `N[C@@]1(C(=O)O)C[C@H](NC(=O)Nc2cccc(F)c2)[C@H]2[C@H](C(=O)O)[C@H]21` (relative stereo): more than 250 °C; for `CC(C)(C)OC(=O)N1CCCC1c1ccnc(-c2nc(=O)c3ccccc3s2)c1` (stereo not given): 195 to 196 °C; for `CCc1nn(-c2ccc(Cl)nn2)c(CC)c1[N+](=O)[O-]`: 83 to 85 °C.

Take `Cc1cc(F)c(F)cc1O`: the melting point lay in the range of 68 to 70 °C. The same measure for `Cc1cc(O)cc2cc(-c3ccc(O)c(F)c3)oc12`: 196 to 198 °C. The same measure for `NS(=O)(=O)OCCCN1CCC(C(O)(c2ccc(F)cc2)c2ccc(F)cc2)CC1`: 78 to 81 °C. The same measure for `C#CCOc1cc(-n2nc(CCC=C)[nH]c2=O)c(Cl)cc1Cl`: 150 to 151 °C; for `CC(C)(Oc1ccc(C(=O)c2ccc(Cl)cc2)cc1)C(=O)Oc1ccc(I)cc1`: 149 to 150 °C. As to `Cc1cc(C=O)c(OCCCCOc2c(C=O)cc(C)cc2C=O)c(C=O)c1`, the melting point turned out to be 205 °C. The compound `COc1c(N=[N+]=[N-])ccnc1C#N` gave a melting point of 102 °C. The compound `COc1cc2cc(-c3ccccc3Cl)sc2c(Cl)c1Cl` returned a melting point of 170 to 171 °C. Compound `CC(=O)Nc1nc2c(Oc3cc(-c4ccc(Br)cc4)ncn3)cccc2s1` came in with a melting point of 271 to 272 °C. The same measure for `CCCCOc1nc(N)c2ncn(C3CCCCC3)c2n1`: 138 to 141 °C; for `Cc1c(Cl)ccc2[nH]c(CO)cc12`: 108 °C; for `O=[N+]([O-])c1ccc2c(C3=CCC4(CC3)OCCO4)c[nH]c2c1`: 259 to 261 °C. The compound `CC(=O)NC(Cc1ccc([N+](=O)[O-])cc1)C(=O)O` (stereo not given) showed a melting point of 165 to 166 °C. In turn, `COc1cccc(N(CC(=O)N(C)c2ccccc2)C(=O)CNC(=O)Nc2cccc(CO)c2)c1` gave a melting point of 142 °C. With `CN1CC=C(c2c[nH]c3ccc(CCNS(C)(=O)=O)cc23)CC1` the figure was 170 to 172 °C. The same measure for `Cc1ccccc1N1CCN(C(=O)c2ccc3n2Cc2ccccc2N(C(=O)c2ccc(C4CCCCC4)cc2)C3)CC1`: 141 to 143 °C; for `O=C(O)c1cn(CC2CC2)c2ccccc12`: 157 °C; for `CCOC(=O)C(C)N(c1ccc(S(=O)(=O)c2ccccc2)cc1C(F)(F)F)S(C)(=O)=O` (stereo not given): 121 °C. The same measure for `Cn1cncc1[N+](=O)[O-]`: 58 to 60 °C. For the compound `O=C(CP(=S)(c1ccccc1)c1ccccc1)c1ccccc1`, the melting point was in the range of 83 to 84 °C. The same measure for `Cc1cc2c(s1)Oc1ccccc1N=C2N1CC2CCC(C1)N2C`: 156 to 159 °C. `COc1ccccc1CN[C@H]1CCCN(CC=Cc2ccccc2)[C@H]1c1ccccc1` (relative stereo) gave a melting point of 54 to 58 °C. The same measure for `Cc1cc(-n2ccnc2)c2cccc(OCc3c(Cl)ccc(S(=O)(=O)N4CCC[C@H]4C(=O)O)c3Cl)c2n1`: 172 °C; for `O=CN1CCN(c2ccnc(Oc3ccccc3)n2)CC1`: 149 to 151 °C. With `CC(C)CC(=O)Nc1cccc(-c2ccnc3c(-c4cccc(N(C)C)c4)cnn23)c1` the figure was 182 to 184 °C; with `O=C(O)/C=C/C=C(c1ccc(-c2ccccc2)cc1)c1ccc(-c2ccccc2)cc1`, 253 to 255 °C. With `CC(C)NCC(O)c1ccc(N)c(C#N)c1` (stereo not given) the figure was 159 to 161 °C; with `CCNc1nc(SC)ncc1C=Nc1cc(OC)cc(OC)c1`, 100 to 105 °C.

With `CCCCCC(C)C(C)c1cc(O)c2c(c1)OC(C)(C)c1ccncc1-2` (stereo not given), the melting point is 155 to 157 °C. With `C[C@H](CN(C(=O)C1C2CCC1CC2)c1ccccn1)N1CCN(c2cccc3[nH]ccc23)CC1` (stereo not given in full) the figure was 176 to 179 °C. With `NS(=O)(=O)c1ccc(/C(=C2\CCOC2=O)c2ccc(F)cc2)cc1` the figure was 202 °C. For `O=C1C=C(O)CC(c2ccccc2)N1` (stereo not given), the melting point was in the range of 166 to 169 °C. Compound `COc1cc(OC)cc(S(=O)(=O)c2ccc(N)c(C)c2)c1` registered a melting point of 121 to 123 °C.

In the case of `COC(=O)c1cc(C(=O)NCC(C)C)c2cc(Cc3ccc(F)cc3)cnc2c1O`, the melting point lay within 178 to 179 °C. The same measure for `O=C1CC(c2cccc(-n3ccnn3)c2)=Nc2ccc(C#Cc3ccc(F)cc3)cc2N1`: 246 to 248 °C; for `CNC(=O)Cc1nn(-c2ccccc2)c(=O)c2c1c1c(Br)cccc1n2C`: 267 to 268 °C.

As for `COC1=C(OC)C(=O)c2c(C#N)cccc2C1=O`, the melting point was 171 to 172 °C.

Turning to `CCC(O)CCCOc1ccccc1Oc1ccccc1OCCCC(O)CC` (stereo not given), the melting point stood at 119 °C.

In turn, `CCOC(=O)CN1C(=O)[C@@H](N)[C@H](c2ccccc2)Sc2cc(Cl)ccc21` (relative stereo) returned a melting point of 173 to 175 °C. In the case of `C=CCc1cc(C2=NNC(=O)CC2)ccc1OCC(O)CNC(C)C` (stereo not given), the melting point was in the range of 94 to 96.5 °C.

Take `Cc1ccc2nc(S)oc2c1`: the melting point was 209 °C. The same measure for `O=C1COC(=O)C(Cc2ccccc2)O1` (stereo not given): 64 to 65 °C.
